The molecules below were run against ROCK2 (Homo sapiens (Human), UniProt O75116) (assay: ROCK2 kinase IC50 assay (CISBIO HTRF KinEASE-STK S2 kit)). Settings: ROCK2 from Carna Biosciences, 2 h incubation at room temperature.
Assay type: biochemical
Protocol: The kinase IC50 was determined by a commercialized CISBIO kinase detection kit, HTRF KinEASE-STK S2 kit (62ST2PEC). ROCK2 (01-119) employed in the reaction was purchased from Carna Biosciences.
Before the assay, the following working solutions as needed were formulated with corresponding reagents according to the instruction of the kinase detection kit: 1×kinase buffer, 5×STK-52 substrate working solution (1.5 μM) and 5×ATP working solution (1.5 μM), 5×ROCK2 kinase working solution, 4×Streptavidin-XL665 working solution, and 4×STK-Ab-Cryptate 2 detection solution. Then the assay was performed according to the following procedure.
A solution of a compound at a concentration of 10000 nM was prepared with the 1×kinase buffer containing 2.5% DMSO. Gradient dilution of the solution of the compound was performed with the kinase buffer containing DMSO, so as to obtain solutions of a test compound at 9 different concentrations. In addition to wells of test compounds, a positive well (containing all the reagents except the compound) and a negative well (containing all the reagents except the test compound and kinase) were set. Except for the control wells (positive and negative wells), a solution of a test compound (4 μL) was added to each of the reaction wells, and a solution of 2.5% DMSO was added to the control wells. Then the substrate (2 μM, i.e., 2 μL 5×STK-S2 substrate working solution) was added to each of the reaction wells. The 5×ROCK2 kinase working solution (2 μL, containing 1.4 ng ROCK2 kinase) was added to each of the reaction wells except for the negative well, the volume of which was made up with the 1×kinase buffer (2 μL). The 5×ATP working solution (2 μL) was added to each of the reaction wells, and the mixtures were incubated at room temperature for 2 hours. After the kinase reaction was complete, the 4×Streptavidin-XL665 working solution was added to each of the reaction wells, the solutions were mixed, followed by immediate addition of the 4×STK-Ab-Cryptate 2 detection solution (5 μL), and the mixtures were incubated at room temperature for 1 hour. The fluorescence signal was read on ENVISION (Perkinelmer) (excitation wavelength: 320 nm, and emission wavelength: 665 nm and 615 nm). The inhibitory rate in each well was calculated based on the fluorescence intensity value: ER (Emission Ratio)=(fluorescence intensity at 665 nm/fluorescence intensity at 615 nm); inhibitory rate=(ERpositive−ERtest compound) (ERpositive−ERnegative)*100%. Curves were plotted and fitted to obtain the median inhibitory concentration (IC50) of each teat compound with the PRISM 5.0 software.

Sequence of ROCK2 (O75116 1-553): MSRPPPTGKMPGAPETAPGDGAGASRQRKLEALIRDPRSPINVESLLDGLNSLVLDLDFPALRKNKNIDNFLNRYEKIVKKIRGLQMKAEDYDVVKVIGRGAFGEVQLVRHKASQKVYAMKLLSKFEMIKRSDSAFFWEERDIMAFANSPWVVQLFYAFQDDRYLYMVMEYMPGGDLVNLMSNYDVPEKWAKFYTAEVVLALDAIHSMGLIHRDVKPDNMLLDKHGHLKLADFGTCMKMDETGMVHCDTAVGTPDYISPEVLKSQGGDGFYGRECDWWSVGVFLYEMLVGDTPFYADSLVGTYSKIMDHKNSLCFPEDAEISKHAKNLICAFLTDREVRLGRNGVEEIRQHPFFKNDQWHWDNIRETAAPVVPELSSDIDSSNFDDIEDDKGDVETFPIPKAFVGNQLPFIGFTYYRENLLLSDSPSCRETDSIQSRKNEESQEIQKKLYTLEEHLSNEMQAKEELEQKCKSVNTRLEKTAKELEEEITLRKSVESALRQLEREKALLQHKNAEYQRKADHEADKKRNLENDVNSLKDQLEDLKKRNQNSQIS

SMILES	IC50
O=C(c1cc2ccc(-c3nccc(Nc4ccc(-c5cn[nH]c5)cc4)n3)cc2[nH]1)N1CCO[C@@H](CO)C1 [TDI01852, (R)-(6-(4-((4-(1H-pyrazol-4-yl)phenyl)amino)pyrimidin-2-yl)-1H-indel-2-yl)(2-(hydroxymethyl)morpholino)methanone]	482 nM
CC(NC(=O)c1cc2ccc(-c3nccc(Nc4ccc5[nH]ncc5c4)n3)cc2[nH]1)c1ccccc1 (centres unmarked) [TDI01140, 6-(4-((1H-indazol-5-yl)amino)pyrimidin-2-yl)-N-(1-phenylethyl)-1H-indole-2-carboxamide]	109 nM
CN(C(=O)c1cc2ccc(-c3nccc(Nc4ccc(-c5cn[nH]c5)cc4)n3)cc2[nH]1)C1CCNC1 (centres unmarked) [TDI01345, 6-(4-((4-(1H-pyrazol-4-yl)phenyl)amino)pyrimidin-2-yl)-N-methyl-N-(pyrrolidin-3-yl)-1H-indole-2-carboxamide]	333 nM
CN(C)C(=O)c1cc2ccc(-c3nccc(Nc4ccc5[nH]ncc5c4)n3)cc2s1 [TDI01110, 6-(4-((1H-indazol-5-yl)amino)pyrimidin-2-yl)-N,N-dimethylbenzo[b]thiophene-2-carboxamide]	422 nM
O=C(Nc1cnc2[nH]ccc2c1)c1cc2ccc(-c3nccc(Nc4ccc5[nH]ncc5c4)n3)cc2[nH]1 [TDI01258, 6-(4-((1H-indazol-5-yl)amino)pyrimidin-2-yl)-N-(1H-pyrrolo[2,3-b]pyridin-5-yl)-1H-indole-2-carboxamide]	62 nM
O=C(Nc1ccncc1)c1cc2ccc(-c3nccc(Nc4ccc5[nH]ncc5c4)n3)cc2[nH]1 [TDI01153, 6-(4-((1H-indazol-5-yl)amino)pyrimidin-2-yl)-N-(pyridin-4-yl)-1H-indole-2-carboxamide]	16 nM
CC(C)NC(=O)c1cc2ccc(-c3nc(Nc4ccc5[nH]ncc5c4)c4ccccc4n3)cc2[nH]1 [TDI01128, 6-(4-((1H-indazol-5-yl)amino)quinazolin-2-yl)-N-isopropyl-1H-indole-2-carboxamide]	145 nM
CN(CC(F)(F)F)C(=O)c1cc2ccc(-c3nccc(Nc4ccc(-c5cn[nH]c5)cc4)n3)cc2[nH]1 [TDI01355, 6-(4-((4-(1H-pyrazol-4-yl)phenyl)amino)pyrimidin-2-yl)-N-methyl-N-(2,2,2-trifluoroethyl)-1H-indole-2-carboxamide]	54 nM
CC(C)NC(=O)c1cc2ccc(-c3nc(Nc4ccc5[nH]ncc5c4)c4sccc4n3)cc2[nH]1 [TDI01141, 6-(4-((1H-indazol-5-yl)amino)thieno[3,2-d]pyrimidin-2-yl)-N-isopropyl-1H-indole-2-carboxamide]	73 nM
O=C(NC1CCOCC1)c1cc2ccc(-c3nccc(Nc4ccc5[nH]ncc5c4)n3)cc2[nH]1 [TDI01291, 6-(4-((1H-indazol-5-yl)amino)pyrimidin-2-yl)-N-(tetrahydro-2H-pyran-4-yl)-1H-indole-2-carboxamide]	32 nM
CC(C)NC(=O)c1cc2ccc(-c3nccc(Nc4ccc5[nH]ncc5c4)n3)cc2o1 [TDI01102, 6-(4-((1H-indazol-5-yl)amino)pyrimidin-2-yl)-N-isopropylbenzofuran-2-carboxamide]	110 nM
C[C@@H](CN)NC(=O)c1cc2ccc(-c3nccc(Nc4ccc(-c5cn[nH]c5)cc4)n3)cc2[nH]1 [TDI01856, (S)-6-(4-((4-(1H-pyrazol-4-yl)phenyl)amino)pyrimidin-2-yl)-N-(1-aminopropan-2-yl)-1H-indole-2-carboxamide]	141 nM
Cn1cc(NC(=O)c2cc3ccc(-c4nccc(Nc5ccc6[nH]ncc6c5)n4)cc3[nH]2)cn1 [TDI01134, 6-(4-((1H-indazol-5-yl)amino)pyrimidin-2-yl)-N-(1-methyl-1H-pyrazol-4-yl)-1H-indole-2-carboxamide]	62 nM
CN(C(=O)c1cc2ccc(-c3nccc(Nc4ccc(-c5cn[nH]c5)cc4)n3)cc2[nH]1)C(CO)CO [TDI01344-2A, 6-(4-((4-(1H-pyrazol-4-yl)phenyl)amino)pyrimidin-2-yl)-N-(1,3-dihydroxypropan-2-yl)-N-methyl-1H-indole-2-carboxamide]	107 nM
N#Cc1cnccc1NC(=O)c1cc2ccc(-c3nccc(Nc4ccc(-c5cn[nH]c5)cc4)n3)cc2[nH]1 [TDI01829B]	82 nM
CC(C)NC(=O)c1cc2ccc(-c3nc(Nc4ccc5[nH]ncc5c4)c4ccsc4n3)cc2[nH]1 [TDI01142, 6-(4-((1H-indazol-5-yl)amino)thieno[2,3-d]pyrimidin-2-yl)-N-isopropyl-1H-indole-2-carboxamide]	225 nM

SMILES	IC50
CN(C(=O)c1cc2ccc(-c3nccc(Nc4ccc(-c5cn[nH]c5)cc4)n3)cc2[nH]1)C1CCOCC1 [TDI01381]	341 nM
CCNC(=O)N1Cc2ccc(-c3nccc(Nc4ccc(-c5cn[nH]c5)cc4)n3)cc2C1 [TDI01411, 5-(4-((4-(1H-pyrazol-4-yl)phenyl)amino)pyrimidin-2-yl)-N-ethylisoindoline-2-carboxamide]	258 nM
CC(C)NC(=O)c1cc2ccc(-c3nc(Nc4ccc5[nH]ncc5c4)c4sccc4n3)cc2s1 [TDI01136, 6-(4-((1H-indazol-5-yl)amino)thieno[3,2-d]pyrimidin-2-yl)-N-isopropylbenzo[b]thiophene-2-carboxamide]	66 nM
O=C(Nc1ccncc1)c1cc2ccc(-c3nccc(Nc4ccc(-c5cn[nH]c5)cc4)n3)cc2s1 [TDI01393]	258 nM
CN(C(=O)c1cc2ccc(-c3nccc(Nc4ccc(-c5cn[nH]c5)cc4)n3)cc2[nH]1)c1ccncc1 [TDI01421, 6-(4-((4-(1H-pyrazol-4-yl)phenyl)amino)pyrimidin-2-yl)-N-methyl-N-(pyridin-4-yl)-1H-indole-2-carboxamide]	289 nM
N#CC1CN(C(=O)c2cc3ccc(-c4nccc(Nc5ccc(-c6cn[nH]c6)cc5)n4)cc3[nH]2)C1 [TDI01398, 1-(6-(4-((4-(1H-pyrazol-4-yl)phenyl)amino)pyrimidin-2-yl)-1H-indole-2-carbonyl)azetidine-3-carbonitrile]	16 nM
COc1ccc(NC(=O)c2cc3ccc(-c4nccc(Nc5ccc6[nH]ncc6c5)n4)cc3[nH]2)cn1 [TDI01315, 6-(4-((1H-indazol-5-yl)amino)pyrimidin-2-yl)-N-(6-methoxypyridin-3-yl)-1H-indole-2-carboxamide]	126 nM
O=C(NC1CCN(c2ccncc2Cl)CC1)c1cc2ccc(-c3nccc(Nc4ccc(-c5cn[nH]c5)cc4)n3)cc2[nH]1 [TDI01847B, 6-(4-((4-(1H-pyrazol-4-yl)phenyl)amino)pyrimidin-2-yl)-N-(1-(3-chloropyridin-4-yl)piperidin-4-yl)-1H-indole-2-carboxamide]	26 nM
CC(C)NC(=O)c1cc2ccc(-c3nc(Nc4ccc5[nH]ncc5c4)c4cc[nH]c4n3)cc2[nH]1 [TDI01143, 6-(4-((1H-indazol-5-yl)amino)-7H-pyrrolo[2,3-d]pyrimidin-2-yl)-N-isopropyl-1H-indole-2-carboxamide]	72 nM
CC(C)NC(=O)c1c[nH]c2ccc(-c3nccc(Nc4ccc5[nH]ncc5c4)n3)cc12 [TDI01285, 5-(4-((1H-indazol-5-yl)amino)pyrimidin-2-yl)-N-isopropyl-1H-indole-3-carboxamide]	116 nM
CN(C(=O)c1cc2ccc(-c3nccc(Nc4ccc(-c5cn[nH]c5)cc4)n3)cc2[nH]1)C1CCC1 [TDI01420]	477 nM
CC(C)OC(=O)c1cc2ccc(-c3nccc(Nc4ccc(-c5cn[nH]c5)cc4)n3)cc2[nH]1 [TDI01299, isopropyl 6-(4-((4-(1H-pyrazol-4-yl)phenyl)amino)pyrimidin-2-yl)-1H-indole-2-carboxylate]	463 nM
O=C(NC1CCC1)c1cc2ccc(-c3nc(Nc4ccc(-c5cn[nH]c5)cc4)c4sccc4n3)cc2[nH]1 [TDI01424, 6-(4-((4-(1H-pyrazol-4-yl)phenyl)amino)thieno[3,2-d]pyrimidin-2-yl)-N-cyclobutyl-1H-indole-2-carboxamide]	138 nM
CC(C)NC(=O)c1ccc2cc(-c3nccc(Nc4ccc5[nH]ncc5c4)n3)sc2c1 [TDI01106, 2-(4-((1H-indazol-5-yl)amino)pyrimidin-2-yl)-N-isopropylbenzo[b]thiophene-6-carboxamide]	112 nM
O=C(Nc1cccnc1)c1cc2ccc(-c3nccc(Nc4ccc(-c5cn[nH]c5)cc4)n3)cc2[nH]1 [TDI01397, 6-(4-((4-(1H-pyrazol-4-yl)phenyl)amino)pyrimidin-2-yl)-N-(pyridin-3-yl)-1H-indole-2-carboxamide]	120 nM
CNC(=O)c1cc2ccc(-c3nc(Nc4ccc(-c5cn[nH]c5)cc4)c4sccc4n3)cc2[nH]1 [TDI01379, 6-(4-((4-(1H-pyrazol-4-yl)phenyl)amino)thieno[3,2-d]pyrimidin-2-yl)-N-methyl-1H-indole-2-carboxamide]	411 nM

Source: patent publication US10329282B2, “Rho-associated protein kinase inhibitor, pharmaceutical composition comprising the same, as well as preparation method and use thereof” (Beijing Tide Pharmaceutical Co., Ltd., priority 2017, dated 2019)
